Experimental data: patent publication US20050261365A1, “Transthyretin stabilization” (The Scripps Research Institute, priority 2004, published 2005)
“Also recorded” adds a separate entry of the source.

Columns and labels:
[1] = precipitation of small molecules under acid-mediated amyloidogenic conditions in the absence of TTR; type: physicochemical; conditions: 3.6 μM, pH 4.4, 37° C., 72 h
Description: (§1) TTR amyloid inhibition efficacy was probed using a stagnant fibril formation assay described previously, wherein partial denaturation was triggered by acidification (pH 4.4, 37° C.) (Colon, W.; Kelly, J. W. Biochemistry 1992, 31, 8654-8660). Briefly, a test compound (7.2 or 3.6 μM) is incubated with TTR (3.6 μM) for 30 min in pH 7 buffer. Amyloidogenesis is then initiated by lowering to pH 4.4, where maximal fibril formation is observed with WT-TTR after 72 h (37° C.). […] From experience we know that excellent inhibitors allow <10% fibril formation at a small molecule concentration of 7.2 μM and <40% fibril formation at a concentration equal to that of WT-TTR (3.6 μM) (Hammarstrom, P.; et al. Science 2003, 299, 713-716; Klabunde, T.; et al. Nature Struct. Biol. 2000, 7, 312-321; Razavi, H.; et al. Angew Chem 2003, 42, 2758-2761; Miroy, G. J.; et al. Proc. Natl. Acad. Sci. USA 1996, 93, 15051-15056; Peterson, S. A.; et al. Proc. Natl. Acad. Sci. USA 1998, 95, 12956-12960; Baures, P. W.; et al. Bioorg. Med. Chem. 1998, 6, 1389-1401; Baures, P. W.; et al. Bioorg. Med. Chem. 1999, 7, 1339-1347; Petrassi, H. M.; et al. J. Am. Chem. Soc. 2000, 122, 2178-2192; McCammon, M. G.; et al. Structure 2002, 10, 851-863; Oza, V. B.; et al. J. Med. Chem. 2002, 45, 321-332; Saccheftini, J. C.; et al. Nature Rev. Drug Disc. 2002, 1, 267-275; Green, N. S.; et al. J. Am. Chem. Soc. 2003, 125, 13404-13414; Adamski-Werner, S. L.; et al. J. Med. Chem. 2004, 47, 355-374; Miller Sean, R.; et al. Lab. Inv. 2004, 84, 545-552). […] Therefore, when both the ligand and TTR are at equal concentrations, a population of TTR•I, TTR•I2 and unliganded TTR is observed, dictated by the dissociation constants. It is now established by other studies that inhibitor occupancy of only one of the two TTR binding sites is sufficient to stabilize the entire tetramer against amyloidogenesis (Wiseman, R. L.; et al. J. Am. Chem. Soc. 2005, in press). This is further supported by the observation herein that twenty-six of these dibenzofurans are excellent TTR amyloidogenesis inhibitors (<40% fibril formation) at a concentration equal to that of TTR (3.6 μM each, FIG. 3).

[2] = target: T1, TTR in human blood plasma (Homo sapiens, UniProt P02766); assay: plasma TTR binding selectivity, antibody capture method; conditions: inhibitor 10.8 μM, 24 h, 37° C.
T1 construct: from tissue; host or cells: human blood plasma
Description: Inhibitor binding selectivity to TTR in human blood plasma was assessed using a previously established antibody capture method (Purkey, H. E.; et al. Proc. Natl. Acad. Sci. USA 2001, 98, 5566-5571). In this evaluation, inhibitors (10.8 μM, ˜2-3× the natural concentration of TTR) are incubated in human blood plasma for 24 h at 37° C. Quenched sepharose resin is then added to the plasma to remove any small molecules that would bind to the resin as opposed to TTR. TTR and any TTR-bound small molecule is then immunocaptured using a polyclonal TTR antibody covalently attached to sepharose resin. After washing the resin (5×10 min washes), the antibody-TTR complex is dissociated at high pH and analyzed by RP-HPLC. The relative stoichiometry between TTR and inhibitor is then calculated from their HPLC peak areas using standard curves.
(§2) The procedures used for bacterial expression of TTR (Lai, Z.; et al. Biochemistry 1996, 35, 6470-6482), the stagnant fibril formation assay (Colon, W.; Kelly, J. W. Biochemistry 1992, 31, 8654-8660; Lai, Z.; et al. Biochemistry 1996, 35, 6470-6482), the blood plasma binding selectivity assay (Purkey, H. E.; et al. Proc. Natl. Acad. Sci. USA 2001, 98, 5566-5571), and analytical ultracentrifugation (Lashuel, H. A.; et al. Biochemistry 1998, 37, 17851-17864) have all been described in detail previously.

WT-TTR = target: T2, WT-TTR (Homo sapiens, UniProt P02766); assay: stagnant acid-mediated fibril formation assay (turbidity); type: biochemical; conditions: WT-TTR 3.6 μM; for inhibitor potency against fibril formation: inhibitor 3.6 μM, pH 4.4, 72 h
T2 construct: made in house
Description: as §1, §2

Row | Structure (SMILES) | precipitation in the absence of TTR [1] | binding selectivity to TTR in human blood plasma [2] | inhibitor potency against fibril formation (WT-TTR) | also measured
1 | O=C(O)c1cccc2c1oc1c(C(=O)O)ccc(Nc3cccc(C(F)(F)F)c3)c12 [Compound 26] | no measurable precipitation |  |  | 
2 | O=C(O)c1cccc2c1oc1c(C(=O)O)ccc(Nc3cc(C(F)(F)F)cc(C(F)(F)F)c3)c12 [Compound 31] |  | all but two (31 and 35) exhibit dramatically increased binding selectivity |  | 
3 | O=C(O)c1cccc2c1oc1c(C(=O)O)ccc(Oc3cccc(C(F)(F)F)c3)c12 [Compound 45] | no measurable precipitation |  |  | 
4 | O=C(O)c1cccc2c1oc1c(C(=O)O)ccc(Nc3ccccc3F)c12 [Compound 36] |  |  | most potent | 
5 | O=C(O)c1cccc2c1oc1c(C(=O)O)ccc(Nc3cc(Cl)cc(Cl)c3)c12 [Compound 30] | no measurable precipitation |  |  | 
6 | O=C(O)c1cccc(Nc2ccc(C(=O)O)c3oc4c(C(=O)O)cccc4c23)c1 [Compound 33] |  | modest | amongst the most potent | 
7 | O=C(O)c1cccc2c1oc1c(C(=O)O)ccc(-c3ccccc3F)c12 [Compound 67] |  |  | most potent | 
8 | O=C(O)c1cccc2c1oc1c(C(=O)O)ccc(-c3cc(Cl)cc(Cl)c3)c12 [Compound 63] |  |  | most potent | 
9 | O=C(O)c1cccc(-c2ccc(C(=O)O)c3oc4c(C(=O)O)cccc4c23)c1 [Compound 69] |  | modest | amongst the most potent | 
10 | O=C(O)c1cc(Nc2ccc(C(=O)O)c3oc4c(C(=O)O)cccc4c23)cc(C(=O)O)c1 [Compound 34] |  |  | all the inhibitors (except 34) display increased potency | inhibition of WT-TTR fibril formation (WT-TTR; inhibitor 7.2 μM, pH 4.4, 37° C., 72 h): not as effective; also recorded: all but one (34) completely inhibit fibril formation
11 | O=C(O)c1cccc2c1oc1c(C(=O)O)ccc(-c3cc(F)cc(F)c3)c12 [Compound 62] | no measurable precipitation |  |  | 
12 | O=C(O)c1ccc(Nc2ccc(C(=O)O)c3oc4c(C(=O)O)cccc4c23)cc1 [Compound 35] |  | all but two (31 and 35) exhibit dramatically increased binding selectivity |  | 
